Assay [1] relates to BALB/c intraperitoneal macrophages. Nature of the assay: Viability assay (Alamar Blue) on peritoneal murine macrophages. The assay is classed as cell-based. The following applies: Mus musculus, Macrophage; read-out: Mammalian cells IC50 ± SD, Peritoneal Murine Macrophages. As to the method: (§1) Viability assay on mammalian cells and T. cruzi epimastigotes. The cytotoxicity and anti-trypanosomal activity of the NC compounds was tested in human Hs27 fibroblasts (ATCC CRL-1634), LLC-MK2 cells (ATCC CCL-7), RAW 264.7 murine macrophages (ATCC TIB71) (American Type Culture Collection-ATCC, Manassa, Va.), mice intraperitoneal macrophages and in epimastigote forms of T. cruzi Y strain using Alamar Blue assay (Invitrogen—Life Technology, Grand Island, N.Y.). The experiments were performed as described using a range of concentration of 500 μM to 1 nM.

In a further assay the test system is LLC-MK2 cells. Nature of the assay: Viability assay (Alamar Blue) on LLC-MK2 cells. The format is cell-based, Rhesus monkey. The following applies: Macaca mulatta, read-out: Mammalian cells IC50 ± SD, LLC-MK2. As to the method: Rhesus monkey kidney epithelial cell LLC-MK2 (American Type Culture Collection-ATCC, Manassas, Va. # CCL-7), Hs-27 human fibroblasts (American Type Culture Collection-ATCC, Manassas, Va.), RAW 264.7 murine macrophages (American Type Culture Collection-ATCC, Manassas, Va.) U2-09 human osteoblasts (American Type Culture Collection-ATCC, Manassas, Va. # HTB-99) (American Type Culture Collection-ATCC, Manassas, Va.) cells were cultured in Dulbecco's Modified Eagle's Medium (DMEM), supplemented with 10% inactivated FBS, along with 1% of 10,000 units/ml penicillin and 10 mg/ml streptomycin in 0.9% sodium chloride. Intraperitoneal BALB/c mice macrophages were obtained and cultured in DMEM high-glucose, +L-glu, supplemented with 10% FBS (inactivated). The procedure was performed minimizing the distress and pain for the animals following the NIH guidance and animal protocol approved by UTEP's Institutional Animal Care and Use Committee (IACUC).
as §1
The statistical significance (p-value) of the compound's cytotoxicity was calculated using the General Linear Mixed Model Analysis. This analysis was used to test the linear effect of the logarithm of dose on the logit transformation of the percent survival. The IC50 was obtained as the exponent of the negative ratio of the y-intercept and the slope of the fitted regression line (SAS Software, Version 9.2). […] All experiments had statistical significance determined at p≦0.05(*), p≦0.01(**), and p≦0.001(***).

Assay [2] relates to L. major intracellular amastigotes. Kind of assay: High-content imaging infectivity assay, L. major amastigote-infected macrophages. The format is cell-based, Leishmania major. As to conditions: for most effective concentration against L. major intracellular amastigotes / IC50: 48 h treatment; for IC50: Leishmania major, Peritoneal macrophage, in Mus musculus, in BALB/c peritoneal macrophages; for percentage of infected macrophages vs 1% DMSO control: constraints 2, 5 and 8 or more amastigotes per macrophage; for effectiveness compared with positive control amphotericin B 5 μM: percentage of infected macrophages, NC901, NC884 at 5 μM. As to the method:
In vitro infectivity experiments were carried out to determine the activity of compounds NC901, NC884, and NC2459 against L. major intracellular amastigotes. Intraperitoneal macrophages isolated from BALB/c mice were infected with L. major metacyclic promastigotes. After the parasites were allowed to establish infection for 48 hours, the compounds were added and incubated for an additional 48 hours. The compounds anti-leishmanial activity was evaluated using the BD Pathway Bioimager™. In the analysis several constraints were used, such as 2, 5, and 8 or more amastigotes per macrophage.
(§2) In vitro evaluation of the NC drug library on infectivity experiments by high-content imaging assay. Mice intraperitoneal macrophages and human osteoblasts were placed in a microplate and infected with the amastigote forms of L. major strain Friedlin clone V1 and T. cruzi Y strain respectably, followed by treatment with NC lead compounds (as shown in Table 1). Briefly, Image acquisition and analyses of the plates were carried out using the BD Pathway 855 high-resolution fluorescence bioimager system (BD Biosciences). Filter sets appropriate for the excitation and emission spectra of Draq5 were utilized. Images from […] (3×3 montage) were acquired per well with a 20× objective. To perform the host cell segmentation and counting of parasites, the BD AttoVision™ v1.6.2 Sub Object analysis was used. Draq5 creates a background, staining the host cell and parasite nucleus, but defining the cytoplasm as well, determining this way the amount of parasites within each mammalian cell. The host cell nucleus was excluded by size difference. Subsequently, the infection index was calculated based on the mean of these triplicate values by multiplying the percentage of infected cells and the constraints used in the HCIA assay that was of 2, 3, 5, and 8 parasites per cell.

Another assay relates to T. cruzi epimastigotes. Nature of the assay: Viability assay (Alamar Blue) on T. cruzi epimastigotes. The format is cell-based. The following applies: Trypanosoma cruzi. As to the method: as §1
In assay [3] the test system is T. cruzi intracellular amastigotes. Nature of the assay: High-content imaging infectivity assay, T. cruzi amastigote-infected human osteoblasts. The assay is classed as cell-based, Trypanosoma cruzi. As to conditions: for IC50: Trypanosoma cruzi, Osteoblast; for parasite burden / percentage of infected cells, T. cruzi infected mammalian cells: human osteoblasts, 48 h. As to the method: Human osteoblasts were infected with T. cruzi trypomastigotes and were treated with each compound at multiple concentrations for 48 hours.
as §2

The subject of assay [4] is L. major promastigotes. Kind of assay: Annexin V/PI assay on L. major promastigotes. The assay is classed as cell-based, Leishmania major. As to conditions: 24 h; NC901 2.5 μM, NC884 2.5 μM, NC2459 312 nM. As to the method:
Apoptosis was evaluated using Alexa Fluor® 488 Annexin V/PI Apoptosis Kit (Initrogen™-Life technology, Grand Island, N.Y.). L. major promastigotes and BALB/c mice intraperitoneal macrophages were treated with each compound for 24 h. After exposure, the parasites (5×10^7) and macrophages (5×10^6) were harvested, washed and re-suspended with PBS. The Annexin V/PI staining of cells followed the manufacturer's instructions. Then the samples were analyzed with Beckman Coulter Fc500 flow cytometer (Beckman Coulter, USA). The results were expressed as the number of annexin positive cells per thousand cells counted.

The test system of assay [5] is L. major promastigotes. Nature of the assay: Mitoprobe JC-1 mitochondrial membrane potential assay. The assay is classed as cell-based, Leishmania major. The following applies: three concentrations, four hours. As to the method:
L. major promastigotes and intraperitoneal macrophages from BALB/c mice were treated with each compound at three concentrations for four hours. Then, cells were stained with 2 μM of the fluorophore 5,5′,6,6′-tetrachloro-1,1′,3,3′-tetraethylbenzimidazolylcarboncyanine iodide (JC-1) following a modified version of manufacturer's instruction (Life Technologies, Grand Island, N.Y.). The disruption of mitochondrial Δψm is evidenced by an appreciable shift of the fluorescence signal from red to green. JC-1 aggregates or monomers, emitting red or green signal, were identified via flow cytometer (Cytomics Fc500) by using FL-2 or FL-1 detectors, respectively. A proton ionophore that dissipates the mitochondrial Δψm carbonyl cyanide 3-chlorophenylhydrazone (CCCP) at 50 μM, was used as a positive control. Cells treated with the diluent of the compounds (DMSO) and untreated were used as negative controls. Data collection and analysis was performed by using CXP software (Beckman Coulter). JC-1 is the most widely applied method for detecting mitochondrial depolarization occurring in the early stages of apoptosis.

The mark [6] stands for this setting: 96 h incubation, read-out: T. cruzi Epimastigotes EC50.
Setting [7] is: 96 hour incubation, read-out: EC50, T. cruzi epimastigotes.
The mark [8] stands for this setting: in human osteoblasts, 48 h treatment, read-out: T. cruzi Intracellular Amastigotes IC50.

From US9669016B2, “Antiparasitic effect of Bis[3,5-Bis(Benzylidene)-4-Oxo-1-Piperidinyl]amide Derivatives” (priority 2014, dated 2017) come the findings set out here.

Each structure is given as a SMILES string. Where two headings read alike, the source gives them in different places.

Regarding `CN(C)CC1CCC(CN(C)C)C1=O` (stereo not shown) [NC884], the IC50 in assay [1] was determined as 7.67 ± 0.31 µM; in the assay on LLC-MK2 cells, 15.1 ± 0.33 µM; in assay [2], 0.937 ± 0.13 µM; in assay [3] (setting [8]), 0.987 ± 0.11 µM. Moreover, in assay [2], the “most effective concentration against L. major intracellular amastigotes” value (from here on “most effective concentration”) was 5 µM. Further, in assay [2], the “percentage of infected macrophages vs 1% DMSO control” value (shortened to “percentage … vs 1% DMSO control”) was “significant decrease in the percentage of infected cells”. In addition, the “effectiveness compared with positive control amphotericin B 5 μM” value in assay [2] is “not as effective as the positive control amphotericin B”. The EC50 with T. cruzi epimastigotes (setting [6]) and with T. cruzi epimastigotes (setting [7]) was 0.475 µM in each case. The “parasite burden / percentage of infected cells, T. cruzi infected mammalian cells” value (“parasite burden / percentage” for short) in assay [3] (3 or more amastigotes per cell) is recorded as “significantly reduced the parasite burden”. In the assay on L. major promastigotes [4], the “annexin V binding (apoptosis-like effect) vs 1% DMSO” value (shortened to “annexin V binding … vs 1% DMSO”) is on record as “significantly induced an apoptosis-like effect”. Moreover, in the assay with L. major promastigotes [5], the “mitochondrial membrane potential (Δψm) vs 1% DMSO” value is given as “concentration dependent loss in Δψm”.

In the case of `CN(C)CC1CCCC(CN(C)C)C1=O` (stereo not shown) [NC901], the IC50 in assay [1] was 7.03 ± 0.42 µM; in the assay on LLC-MK2 cells, 8.02 ± 0.25 µM; in assay [2], 1.87 ± 0.2 µM; in assay [3] (setting [8]) it was 0.301 ± 0.09 µM. For the same molecule, the “most effective concentration” value in assay [2] is 5 µM. The “percentage … vs 1% DMSO control” value in assay [2] is given as “significant decrease in the percentage of infected cells”. In addition, the “effectiveness compared with positive control amphotericin B 5 μM” value in assay [2] is “not as effective as the positive control amphotericin B”. Further, the EC50 in the assay on T. cruzi epimastigotes (setting [6]) and in the assay with T. cruzi epimastigotes (setting [7]) was 0.468 µM throughout. In addition, in assay [3] (3 or more amastigotes per cell), the “parasite burden / percentage” value was “significantly reduced the parasite burden”. For the same molecule, in the assay on L. major promastigotes [4], the “annexin V binding … vs 1% DMSO” value is on record as “significantly induced an apoptosis-like effect”. In addition, in the assay on L. major promastigotes [5], the “mitochondrial membrane potential (Δψm) vs 1% DMSO” value was “concentration dependent loss in Δψm”.

Turning to `O=C1/C(=C/c2ccccc2)CN(C(=O)C(=O)N2C/C(=C\c3ccccc3)C(=O)/C(=C/c3ccccc3)C2)C/C1=C\c1ccccc1` [NC2459], the IC50 was determined as 5.45 ± 0.36 µM in assay [1]; 2 ± 0.093 µM in the assay with LLC-MK2 cells; 0.625 ± 0.11 µM in assay [2]; 0.227 µM in assay [3] (48 hours, 3 or more amastigotes per cell, read-out: IC50, T. cruzi amastigote-infected human osteoblasts); 0.227 ± 0.04 µM in assay [3] (setting [8]). Moreover, the “most effective concentration” value in assay [2] stood at 1.25 µM. The “percentage … vs 1% DMSO control” value in assay [2] was “significant decrease in the percentage of infected cells”. The “effectiveness compared with positive control amphotericin B 5 μM” value in assay [2] is “significantly more effective”. The EC50 in the assay on T. cruzi epimastigotes (setting [6]) and in the assay with T. cruzi epimastigotes (setting [7]) was 0.02 µM in each case. Also, the “parasite burden / percentage” value in assay [3] (3 or more amastigotes per cell) is “significantly reduced the parasite burden”. Also, the “annexin V binding … vs 1% DMSO” value in the assay with L. major promastigotes [4] is reported as “significantly induced an apoptosis-like effect”. Moreover, the “mitochondrial membrane potential (Δψm) vs 1% DMSO” value with L. major promastigotes [5] is “concentration dependent loss in Δψm”.
